Active and inactive are the calls of the source. The calls are words filed in the database; no cut-off is given here.
Legend:
Mus musculus [1] = assay: Behavioral activity in Mus musculus albino (mouse) assessed as inhibition of locomotion at 100 mg/kg, ip after 1 hr by actophotometric analysis relative to control; format: functional; conditions: route intraperitoneal
Mus musculus [2] = assay: Anticonvulsant activity in ip dosed Mus musculus albino (mouse) assessed as protection against maximal electroshock-induced seizures measured at 0.5 hr; format: functional; conditions: read-out: MED
Mus musculus [3] = assay: Anticonvulsant activity in ip dosed Mus musculus albino (mouse) assessed as protection against subcutaneous pentylenetetrazol-induced seizures measured at 4 hr; format: functional; conditions: read-out: MED
Mus musculus [4] = assay: Neurotoxicity in ip dosed Mus musculus albino (mouse) assessed as minimal motor impairment measured at 4 hr; format: toxicity, organism-based; conditions: in vivo
Mus musculus [5] = species on record: Mus musculus; assay: Sedative-hypnotic activity in Mus musculus albino (mouse) assessed as increase in phenobarbitone-induced sleeping time; format: functional, organism-based
Mus musculus [6] = assay: Anticonvulsant activity in ip dosed Mus musculus albino (mouse) assessed as protection against subcutaneous pentylenetetrazol-induced seizures measured at 0.5 hr; format: functional; conditions: read-out: MED
Rattus norvegicus [7] = assay: Antidepressant activity in Rattus norvegicus Wistar (rat) assessed as immobility time at 100 mg/kg, ip after 60 min by forced swim pool test relative to control; conditions: route intraperitoneal
Mus musculus [8] = assay: Anticonvulsant activity in ip dosed Mus musculus albino (mouse) assessed as protection against maximal electroshock-induced seizures measured at 4 hr; format: functional; conditions: read-out: MED
Mus musculus [9] = assay: Neurotoxicity in ip dosed Mus musculus albino (mouse) assessed as minimal motor impairment measured at 0.5 hr; format: toxicity, organism-based; conditions: in vivo
Mus musculus [10] = assay: Anticonvulsant activity in Mus musculus albino (mouse) assessed as protection against maximal electroshock-induced seizures at 300 mg/kg, ip measured at 4 hr; format: functional, organism-based; parameters: dose 300 mg/kg
Mus musculus [11] = assay: Neurotoxicity in Mus musculus albino (mouse) assessed as minimal motor impairment at 300 mg/kg, ip measured at 0.5 hr; format: toxicity, organism-based; parameters: dose 300 mg/kg, route intraperitoneal; conditions: in vivo
Mus musculus [12] = assay: Neurotoxicity in Mus musculus albino (mouse) assessed as minimal motor impairment at 300 mg/kg, ip measured at 4 hr; format: toxicity, organism-based; parameters: dose 300 mg/kg, route intraperitoneal; conditions: in vivo
Mus musculus [13] = assay: Anticonvulsant activity in Mus musculus albino (mouse) assessed as protection against maximal electroshock-induced seizures at 300 mg/kg, ip measured at 0.5 hr; format: functional, organism-based; parameters: dose 300 mg/kg
Mus musculus [14] = assay: Anticonvulsant activity in Mus musculus albino (mouse) assessed as protection against subcutaneous pentylenetetrazol-induced seizures at 300 mg/kg, ip measured at 0.5 hr; format: functional, organism-based; parameters: dose 300 mg/kg
Mus musculus [15] = assay: Anticonvulsant activity in Mus musculus albino (mouse) assessed as protection against subcutaneous pentylenetetrazol-induced seizures at 300 mg/kg, ip measured at 4 hr; format: functional, organism-based; parameters: dose 300 mg/kg
Mus musculus [16] = assay: Behavioral activity in Mus musculus albino (mouse) assessed as inhibition of locomotion at 25 mg/kg, ip after 1 hr by actophotometric analysis relative to control; format: functional; conditions: route intraperitoneal
Rattus norvegicus [17] = assay: Antidepressant activity in Rattus norvegicus Wistar (rat) assessed as immobility time at 25 mg/kg, ip after 60 min by forced swim pool test relative to control; conditions: route intraperitoneal

SMILES	inhibition in vivo at 100 mg/kg (Mus musculus [1]) [%]	minimal effective dose (Mus musculus [2]) [mg/kg]	minimal effective dose (Mus musculus [3]) [mg/kg]	MTC (Mus musculus [4]) [mg/kg]	Activity (Mus musculus [5])	minimal effective dose (Mus musculus [6]) [mg/kg]	Time (Rattus norvegicus [7]) [s]	minimal effective dose (Mus musculus [8]) [mg/kg]	MTC (Mus musculus [9]) [mg/kg]	Activity (Mus musculus [10])	Activity (Mus musculus [11])	Activity (Mus musculus [12])	Activity (Mus musculus [13])	Activity (Mus musculus [14])	Activity (Mus musculus [15])	inhibition in vivo at 25 mg/kg (Mus musculus [16]) [%]	Time (Rattus norvegicus [17]) [s]
CN(C)c1ccc(-c2nnc(-n3c(/C=C/c4ccc(Cl)cc4)nc4ccccc4c3=O)o2)cc1	49	100	300	100	inactive	300	121.21	100	100								
COc1ccc(-c2nnc(-n3c(/C=C/c4ccc(Cl)cc4)nc4ccccc4c3=O)o2)cc1	50				inactive		184.36			inactive	Non-toxic	Non-toxic	inactive	inactive	inactive		
Cc1ccc(-c2nnc(-n3c(/C=C/c4ccc(Cl)cc4)nc4ccccc4c3=O)o2)cc1	56				inactive		150.76			inactive	Non-toxic	Non-toxic	inactive	inactive	inactive		
O=c1c2ccccc2nc(/C=C/c2ccccc2)n1-c1nnc(-c2ccc(Cl)cc2)o1	38				inactive		217.93			inactive	Non-toxic	Non-toxic	inactive	inactive	inactive		
O=c1c2ccccc2nc(/C=C/c2ccccc2)n1-c1nnc(-c2ccccc2)o1	48				inactive		113.14			inactive	Non-toxic	Non-toxic	inactive	inactive	inactive		
Cc1ccc(/C=C/c2nc3ccccc3c(=O)n2-c2nnc(-c3ccc(Cl)cc3)o2)cc1	45	300			inactive		135.18			inactive	Non-toxic	Non-toxic		inactive	inactive		
CN(C)c1ccc(-c2nnc(-n3c(/C=C/c4ccccc4)nc4ccccc4c3=O)o2)cc1	30				inactive		50.23			inactive	Non-toxic	Non-toxic	inactive	inactive	inactive		
Cc1ccc(/C=C/c2nc3ccccc3c(=O)n2-c2nnc(-c3ccc(C)cc3)o2)cc1	40				inactive		163.21			inactive	Non-toxic	Non-toxic	inactive	inactive	inactive		
O=c1c2ccccc2nc(/C=C/c2ccc(Cl)cc2)n1-c1nnc(-c2ccccc2)o1	51				inactive		151.11			inactive	Non-toxic	Non-toxic	inactive	inactive	inactive		
CCCC(CCC)C(=O)[O-].[Na+] [VALPROATE SODIUM]						300				inactive	Non-toxic	Non-toxic	inactive		inactive		
COc1ccc(-c2nnc(-n3c(/C=C/c4ccc(C)cc4)nc4ccccc4c3=O)o2)cc1	42				inactive		182.82			inactive	Non-toxic	Non-toxic	inactive	inactive	inactive		
O=C1NC(=O)C(c2ccccc2)(c2ccccc2)N1 [PHENYTOIN]		30		100				30	100					inactive	inactive	70	
NC(=O)N1c2ccccc2C=Cc2ccccc21 [CARBAMAZEPINE]		30	300	300		100		100	100								240.3
COc1ccc(-c2nnc(-n3c(/C=C/c4ccccc4)nc4ccccc4c3=O)o2)cc1	41				inactive		163.75		300	inactive		Non-toxic	inactive	inactive	inactive		
O=c1c2ccccc2nc(/C=C/c2ccc(Cl)cc2)n1-c1nnc(-c2ccc(Cl)cc2)o1	53				inactive		100.12		100	inactive		Non-toxic	inactive	inactive	inactive		
Cc1ccc(-c2nnc(-n3c(/C=C/c4ccccc4)nc4ccccc4c3=O)o2)cc1	48				inactive		152.39			inactive	Non-toxic	Non-toxic	inactive	inactive	inactive		
Cc1ccc(/C=C/c2nc3ccccc3c(=O)n2-c2nnc(-c3ccc(N(C)C)cc3)o2)cc1	37				inactive		125.42		100	inactive		Non-toxic	inactive	inactive	inactive		
Cc1ccc(/C=C/c2nc3ccccc3c(=O)n2-c2nnc(-c3ccccc3)o2)cc1	47				inactive		160.05			inactive	Non-toxic	Non-toxic	inactive	inactive	inactive		

Reference: ChEMBL document CHEMBL3045278, “Anticonvulsant and sedative-hypnotic activity of some novel 3-[5-(4-substituted) phenyl-1,3,4-oxadiazole-2yl]-2-styrylquinazoline-4(3H)-ones” (Med Chem Res, 2010)
